# Assay results published in PubChem BioAssay (NCI).
#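 Tested at 5 concentrations; 48 h exposure; 96-well plates; endpoints linearly interpolated, else capped at highest concentration. GI50 = concentration required for 50% inhibition of growth. TGI denotes the concentration required for complete inhibition of growth.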
# Legend:
# Test in all cases: NCI anticancer screen, dose series, 48 h
# CCRF-CEM leukemia = system: CCRF-CEM leukemia
# K-562 leukemia = system: K-562 leukemia
# KM12 colon = system: KM12 colon
# MOLT-4 leukemia = system: MOLT-4 leukemia
# NCI-H226 lung = system: NCI-H226 lung
# RPMI-8226 leukemia = system: RPMI-8226 leukemia
# SK-MEL-28 melanoma = system: SK-MEL-28 melanoma
# SK-OV-3 ovarian = system: SK-OV-3 ovarian
# HCC-2998 colon = system: HCC-2998 colon
# UACC-62 melanoma = system: UACC-62 melanoma
Structure (SMILES),GI50 (CCRF-CEM leukemia) [µM],TGI (CCRF-CEM leukemia) [µM],GI50 (K-562 leukemia) [µM],TGI (K-562 leukemia) [µM],GI50 (KM12 colon) [µM],TGI (KM12 colon) [µM],GI50 (MOLT-4 leukemia) [µM],TGI (MOLT-4 leukemia) [µM],GI50 (NCI-H226 lung) [µM],TGI (NCI-H226 lung) [µM],GI50 (RPMI-8226 leukemia) [µM],TGI (RPMI-8226 leukemia) [µM],GI50 (SK-MEL-28 melanoma) [µM],TGI (SK-MEL-28 melanoma) [µM],GI50 (SK-OV-3 ovarian) [µM],TGI (SK-OV-3 ovarian) [µM],TGI (HCC-2998 colon) [µM],TGI (UACC-62 melanoma) [µM],GI50 (HCC-2998 colon) [µM],GI50 (UACC-62 melanoma) [µM]
O=[N+]([O-])c1cccc([I+]c2ccccc2)c1,5.27,90.7,3.26,32.1,12,26.1,3.4,39,7.12,21.3,4.09,30.7,10.5,23.2,13.8,27.5,–,–,–,–
O=C1CCCCCCCCCCOC(=O)CCCCCCCCCCO1,–,> 100,–,> 100,–,> 100,–,–,–,> 100,–,–,–,> 100,–,> 100,> 100,> 100,–,–
O=C(O)C1C2CCC(O2)C1C(=O)NCc1cccnc1 (stereo not given),–,> 100,–,–,–,> 100,–,–,–,–,–,> 100,–,> 100,–,> 100,–,> 100,–,–
C=C(C)[C@@H]1CC[C@]2(C(=O)N3CCN(C)CC3)CC[C@]3(C)[C@H](CC[C@@H]4[C@@]5(C)CC[C@H](O)C(C)(C)[C@@H]5CC[C@]43C)[C@@H]12,–,–,–,–,2.09,4.03,–,–,2.07,5,–,–,1.8,3.48,1.84,3.35,3.59,3.3,1.91,1.72
NCCCCCCCCCn1c2c(c3ccccc3c1=O)C(=O)c1ccccc1-2,4.14,> 50,7.42,32.3,9.53,22.2,4.1,40.4,–,–,10.4,30.8,9.98,23,10.1,18.7,–,18.1,–,9.35
O=C(O)c1c[nH]c2c(ccc3[nH]cc(C(=O)O)c(=O)c32)c1=O,–,–,–,> 100,–,> 100,–,> 100,–,> 100,–,> 100,–,> 100,–,> 100,–,> 100,–,–
NC(CSC1(c2ccc(Cl)cc2)c2ccccc2-c2ccccc21)C(=O)O (stereo not given),–,> 100,–,> 100,–,63.2,–,71.5,–,67.5,–,> 100,–,> 100,–,> 100,–,34.4,–,–
COC(=O)Cc1nn2c(nc1=O)sc1ccc3ccccc3c12,–,> 100,–,> 100,–,> 100,–,> 100,–,> 100,–,–,–,> 100,–,> 100,> 100,–,–,–
CC/C(=C(/CC)c1ccc(O)cc1)c1ccc(O)cc1,–,–,–,–,3.64,12.9,5.29,66.4,14.6,36,–,–,6.96,19.9,3.63,13,23.3,16.8,10.7,3.89
CC(C)(N)C(=O)N[C@@H]1C(=O)N2[C@@H]1SC(C)(C)[C@@H]2C(=O)O,–,–,–,> 100,–,> 100,–,–,–,> 100,–,> 100,–,> 100,–,> 100,–,> 100,–,–
C=C1CCC2(C(C)=O)COC1(C)O2 (stereo not given),–,> 100,–,> 100,–,> 100,–,> 100,–,> 100,–,> 100,–,> 100,–,> 100,–,> 100,–,–
CCOC(=O)CP(=S)(S)c1ccccc1 (stereo not given),–,> 100,–,> 100,–,> 100,–,> 100,–,> 100,–,–,–,> 100,–,> 100,–,> 100,–,–
CC(=O)Nc1ccc(Cc2ccc3[nH]c(=O)cc(C)c3c2)cc1,–,> 100,–,> 100,–,> 100,–,> 100,–,> 100,–,> 100,–,> 100,–,> 100,–,> 100,–,–
CCOC(=O)Cn1c(=O)[nH]c(=O)c2[nH]cnc21,–,> 100,–,> 100,–,> 100,–,> 100,–,–,–,–,–,> 100,–,> 100,> 100,> 100,–,–
COC(=O)C1=Cc2cn(S(=O)(=O)c3ccc(C)cc3)c3cccc(c23)C(C=C(C)C)N1C(C)=O (stereo not given),–,77.4,–,> 100,–,> 100,–,44.9,–,> 100,–,–,–,–,–,> 100,> 100,> 100,–,–
Cc1cc(C)c(C(=O)/C(=C/c2ccccc2)c2ccccc2)c(C)c1,–,> 100,–,> 100,–,> 100,–,> 100,–,> 100,–,> 100,–,> 100,–,> 100,–,> 100,–,–
Cn1c2c(c3ccccc31)CCN(CCCN1CCN(c3ccccc3)CC1)C2=O,–,65.7,–,38.3,–,–,–,36.7,–,–,–,36.7,–,36.7,–,37,–,37.4,–,–
c1ccc(N2N=NC3C4CC(C5c6ccccc6C45)C32)cc1 (stereo not given),–,> 100,–,> 100,–,> 100,–,73.4,–,96.3,–,> 100,–,–,–,> 100,–,> 100,–,–
